Reference: ChEMBL document CHEMBL1201862, “PubChem BioAssay data set” (2004)
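The compound was tested at five concentrations on cells cultured in 96-well plates, with a 48-hour exposure period. Here, GI50 denotes the concentration required for 50% inhibition of growth.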 Active and inactive are the calls of the source. Cut-off read from the data, not from the text of the source: active = GI50 up to about 1.1 µM and inactive = higher.

Assays:
Test in all cases: inhibition of tumour cell growth, NCI panel, 48 h
A498 = system: A498
A549 = system: A549
CCRF-CEM = system: CCRF-CEM
HT-29 = system: HT-29
K562 = system: K562
KM12 = system: KM12
LOX IMVI = system: LOX IMVI
MCF7 = system: MCF7
MDA-MB-231 = system: MDA-MB-231
MDA-MB-435 = system: MDA-MB-435
MOLT-4 = system: MOLT-4
Malme-3M = system: Malme-3M
NCI-H522 = system: NCI-H522
RPMI-8226 = system: RPMI-8226
SF-268 = system: SF-268
SF-539 = system: SF-539
SK-MEL-2 = system: SK-MEL-2
SK-MEL-5 = system: SK-MEL-5
SK-OV-3 = system: SK-OV-3
U-251 = system: U-251

Measured: GI50

C=C1C(OC2O[C@@H]3O[C@@]4(C)CC[C@H]5[C@H](C)CC[C@@H](C2=C)[C@@]35O4)O[C@@H]2O[C@@]3(C)CC[C@H]4[C@H](C)CC[C@@H]1[C@@]24O3 (stereo not given in full)
inactive: A498 > 50 µM | A549 > 50 µM | CCRF-CEM > 50 µM | HT-29 > 50 µM | K562 > 50 µM | KM12 > 50 µM | LOX IMVI > 50 µM | MCF7 > 50 µM | MDA-MB-231 > 50 µM | MDA-MB-435 > 50 µM | MOLT-4 > 50 µM | Malme-3M > 50 µM | NCI-H522 > 50 µM | RPMI-8226 > 50 µM | SF-268 > 50 µM | SF-539 > 50 µM | SK-MEL-2 > 50 µM | SK-MEL-5 > 50 µM | SK-OV-3 > 50 µM | U-251 > 50 µM

NC(=O)NNc1nc2ccccc2c(=O)n1NC(=O)C(=O)Nc1ccc(Cl)cc1Cl
inactive: A498 > 100 µM | A549 > 100 µM | CCRF-CEM > 100 µM | HT-29 > 100 µM | K562 > 100 µM | KM12 > 100 µM | LOX IMVI > 100 µM | MCF7 > 100 µM | MDA-MB-231 > 100 µM | MDA-MB-435 > 100 µM | MOLT-4 > 100 µM | Malme-3M > 100 µM | NCI-H522 > 100 µM | RPMI-8226 > 100 µM | SF-268 > 100 µM | SF-539 > 100 µM | SK-MEL-2 > 100 µM | SK-MEL-5 > 100 µM | SK-OV-3 > 100 µM | U-251 > 100 µM

COC(=O)C1CC23C4=C(CCC41)CCC1CN4CC(C)C(CC(OC(C)=O)C12COC(C)=O)C43O (stereo not given)
inactive: A498 > 100 µM | A549 > 100 µM | CCRF-CEM > 100 µM | HT-29 > 100 µM | K562 > 100 µM | KM12 > 100 µM | LOX IMVI > 100 µM | MCF7 > 100 µM | MDA-MB-231 > 100 µM | MDA-MB-435 > 100 µM | MOLT-4 68.4 µM | Malme-3M > 100 µM | NCI-H522 > 100 µM | RPMI-8226 > 100 µM | SF-268 > 100 µM | SF-539 > 100 µM | SK-MEL-2 > 100 µM | SK-MEL-5 > 100 µM | SK-OV-3 > 100 µM | U-251 > 100 µM

O=C1CCCCC1C(O)(C(F)(F)F)C(F)(F)Cl (stereo not given)
inactive: A498 > 10 µM | A549 > 10 µM | CCRF-CEM > 10 µM | HT-29 > 10 µM | K562 > 10 µM | KM12 > 10 µM | LOX IMVI > 10 µM | MCF7 > 10 µM | MDA-MB-231 > 10 µM | MDA-MB-435 > 10 µM | MOLT-4 > 10 µM | Malme-3M > 10 µM | NCI-H522 > 10 µM | RPMI-8226 > 10 µM | SF-268 > 10 µM | SF-539 > 10 µM | SK-MEL-2 > 10 µM | SK-MEL-5 > 10 µM | SK-OV-3 > 10 µM | U-251 > 10 µM

COC(=O)NCCc1n[nH]c2c1C(=O)C=C(N1CCOCC1)C2=O
inactive: A498 > 100 µM | A549 > 100 µM | CCRF-CEM > 100 µM | HT-29 > 100 µM | K562 > 100 µM | KM12 > 100 µM | LOX IMVI > 100 µM | MCF7 > 100 µM | MDA-MB-231 > 100 µM | MDA-MB-435 > 100 µM | MOLT-4 > 100 µM | Malme-3M > 100 µM | NCI-H522 > 100 µM | RPMI-8226 > 100 µM | SF-268 > 100 µM | SF-539 > 100 µM | SK-MEL-2 > 100 µM | SK-MEL-5 > 100 µM | SK-OV-3 > 100 µM | U-251 > 100 µM
